Entries after “also recorded” stand apart in the source; their conditions may differ.
Columns and labels:
[1] = DSC analysis of glass transition temperatures (Tg, Tg′); format: physicochemical; conditions: compound itself
Experimental: Tg′ and Tg were evaluated using a PYRIS Diamond DSC. Samples for Tg′ determination were prepared by loading 50 μL of sample into a 500 μL aluminum pan, then sealing the pan using the sealing press. The thermal program used to identify Tg′ (without annealing) was: • 1. Ramp from 20° C. to −50° C. at 10° C./min • 2. Hold at −50° C. for 4 minutes • 3. Ramp from −50° C. to 20° C. at 10° C./min The thermal program used to identify Tg′ that included an annealing step was: • 1. Ramp from 20° C. to −45° C. at 10° C./min • 2. Hold at −45° C. for 10 minutes • 3. Ramp from −45° C. to −8° C. at 10° C./min • 4. Hold at −8° C. for 1 hour • 5. Ramp from −8° C. to −70° C. at 10° C./min • 6. Hold at −70° C. for 5 minutes • 7. Ramp from −70° C. to 20° C. at 10° C./min Tg′ was taken to be the midpoint of the transition.
Freeze-dried samples used in the determination of […] ramped the temperature from 25° C. to 150° C. at 10° C./min.

[2] = Stability during freeze-drying by reverse-phase HPLC; format: physicochemical
Experimental: Reverse phase HPLC was used to quantify the potency and purity of; disodium 2-(N′-methyl-N′-thiobenzoyl-hydrazinocarbonyl)-1-(methyl-thiobenzoyl-hydrazono)-ethanolate following freeze-drying. The analysis was performed as detailed in the analytical method.

Tg (glass transition temperature) [1] [°C]	main peak purity ([2]; RP-HPLC after freeze-drying, on average) [%]	SMILES	stability during freeze-drying ([2]; reverse-phase HPLC, all freeze-drying cycles tested)
−44.7	–	CN(/N=C(\O)C/C(O)=N/N(C)C(=S)c1ccccc1)C(=S)c1ccccc1 [Structural Formula, (II)]	–
–	97	CN(NC(=O)CC(=O)NN(C)C(=S)c1ccccc1)C(=S)c1ccccc1 [disodium 2-(N′-methyl-N′-thiobenzoyl-hydrazinocarbonyl)-1-(methyl-thiobenzoyl-hydrazono)-ethanolate]	stable through all of the freeze-drying cycles tested, as no degradation products were detected; also recorded: did not adversely affect the stability
